Assay results taken from EP0155871A1, “Compounds possessing inhibiting properties in the lignin formation in plants and process for the reduction of their lignin content” (Etablissement Public dit: CENTRE NATIONAL DE LA RECHERCHE …, priority 1984, dated 1985).
Like-named read-outs stand apart in the source and are kept apart here. Each block holds one compound with its values, some of them ahead of it.

Experiments:
Assay type in all cases: biochemical
CAD = biological target: T1, CAD (Populus deltoides, UniProt P31657); test: reversibility of CAD inhibition by dialysis of the enzyme-inhibitor mixture; conditions: 2 mM; dialysis against tampon tris/HCl 0,1 M, pH 7,5, 14 heures, 4°C
T1 construct: from tissue
T1 sequence (P31657 1-357): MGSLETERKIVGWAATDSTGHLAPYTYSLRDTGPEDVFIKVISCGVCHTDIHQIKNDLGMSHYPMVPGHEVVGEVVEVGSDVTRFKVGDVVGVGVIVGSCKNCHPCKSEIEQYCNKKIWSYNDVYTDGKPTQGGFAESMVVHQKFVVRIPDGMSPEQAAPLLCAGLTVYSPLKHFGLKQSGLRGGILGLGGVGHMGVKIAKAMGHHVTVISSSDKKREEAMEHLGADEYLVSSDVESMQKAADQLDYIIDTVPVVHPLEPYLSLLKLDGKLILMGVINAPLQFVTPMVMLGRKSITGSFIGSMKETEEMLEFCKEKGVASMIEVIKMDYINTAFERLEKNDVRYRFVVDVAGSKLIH
From the text: L'étude des modalités d'action des inhibiteurs de l'invention montre la réversibilité de leur action.

CAD de peuplier [1] = biological target: T2, CAD de peuplier (Populus deltoides, UniProt P31657); test: in vitro inhibition of isolated poplar CAD
T2 construct: la CAD de peuplier isolée selon la méthode deSARNI et al; from tissue
T2 sequence (P31657 1-357): T1 sequence (P31657 1-357)
From the text: On rapporte dans le tableau suivant les résultats obtenus concernant l'effet mesuré in vitro d'inhibiteurs selon l'invention à différentes concentrations vis-à-vis de la CAD de peuplier isolée selon la méthode deSARNI et al, dans, EUROP JOURNAL OF BIOCHEMISTRY,139, P.259-265, 1984.
Les mesures des trois derniers résultats ont été réalisées dans le sens physiologique c'est-à-dire en suivant la réduction de l'aldéhyde coniférylique(oxydation du […] mesurée à 340 nm).
Cette inhibition mesurée in vitro dans le sens physiologique (pH 6,5) est 10 à 15 fois plus importante que dans le sens inverse, c'es-t-à-dire alcool→ aldéhyde (pH 8,8).

[2] = system: éthanol déshydrogénase (EDH); test: action on plant zinc enzyme EDH
From the text: (§1) L'étude de leur action sur différentes enzymes a également été réalisée.
(§2) On a étudié ainsi l'action d'inhibiteurs selon l'invention sur des enzymes du métabolisme phénolique telles que la phénylalanine ammonialyase (PAL), la catéchol O-méthyl transférase (OMT), l'hydroxycinnamate : CoA ligase (HCl) et la cinnamoyl : CoA réductase (CCR), et des enzymes végétales à zinc, telles que l'éthanol déshydrogénase (EDH), la superoxyde dismutase (SOD) et l'anhydrase carbonique (CA).

CAD de peuplier [3] = biological target: T2, CAD de peuplier; test: in vitro inhibition of isolated poplar CAD; conditions: 0,250mM; sens physiologique, réduction de l'aldéhyde coniférylique, 340 nm, pH 6,5; read-out: inhibition à 0,250mM
[4] = system: superoxyde dismutase (SOD); test: action on plant zinc enzyme SOD
From the text: as §1, §2

[5] = system: cinnamoyl : CoA réductase (CCR); test: action on phenolic metabolism enzyme CCR
From the text: as §1, §2

[6] = system: anhydrase carbonique (CA); test: action on plant zinc enzyme carbonic anhydrase
From the text: as §1, §2

[7] = system: phénylalanine ammonialyase (PAL); test: action on phenolic metabolism enzyme PAL
From the text: as §1, §2

[8] = 2mM, not among the results measured in the physiological direction, read-out: Inhibition % à 2mM

activité de CAD après dialyse (CAD): restitution totale de l'activité CAD | inhibition at 2000 µM (CAD de peuplier [1]; [8]): 75% | inhibition at 2000 µM (CAD de peuplier [1]; text restatement of the table value (2mM), read-out: taux d'inhibition): ~75% | action sur l'EDH [2]: n'agit pas | inhibition at 250 µM (CAD de peuplier [3]): 100% | action sur la SOD [4]: n'agit pas | action vis à vis de la CCR [5]: actif | action sur l'AC [6]: n'agit pas | action vis à vis de la PAL [7]: actif
SMILES: COc1cc(C=CC(=O)OC(C)(C)C)ccc1O [FTB, férulate de tertiobutyle]

inhibition at 2000 µM (CAD de peuplier [1]; [8]): 40%
SMILES: CC(C)(C)OC(=O)C=Cc1ccc(O)cc1 [PCB, p-Coumarate de tertiobutyle]

inhibition at 250 µM (CAD de peuplier [3]): 100%
SMILES: COc1cc(C=CC(=O)N2CCSC2=S)ccc1O [FMT]

inhibition at 2000 µM (CAD de peuplier [1]; [8]): 55%
SMILES: COc1cc(C=CC(=O)OC(C)(C)C)cc(OC)c1O [STB, Sinapate de tertiobutyle]
